Test results from patent US10807992B2, “Single enantiomer antiparasitic compounds” (priority 2017, dated 2020).
Like-named read-outs stand apart in the source and are kept apart here.

Experiments:
Ixodes scapularis = assay: In vitro contact activity against adult ticks (coated vial), I. scapularis; details: for mortality at 0.006 µM: Trial 1, dose 0.006 μM; for mortality at 0.024 µM: Trial 1, dose 0.024 μM; for mortality at 0.098 µM: Trial 1, dose 0.098 μM; for mortality at 0.39 µM: Trial 1, dose 0.39 μM; for mortality at 1.56 µM: Trial 1, dose 1.56 μM; for mortality at 6.25 µM: Trial 1, dose 6.25 μM; for mortality at 25 µM: Trial 1, dose 25 μM; for mortality at 100 µM: Trial 1, dose 100 μM
Method: Rhipicephalus sanguineus, Dermacentor variabilis, Amblyomma americanum, (Ecto Services, Inc., Henderson, N.C.) and Ixodes scapularis (Oklahoma State University, Stillwater, Okla.) aged between 2-4 weeks post molt were held in an environmental chamber at 24° C., 80% humidity with 12-hour light/dark cycles.
For tick assays, vial caps were pre-drilled with a single hole in the center of each cap to allow air exchange. A filter paper (Whatman Grade 540 2.1 cm) was placed in the lid of each vial. An aliquot from each compound stock was added to an acetone/triton solution to achieve the desired top doses for the study. Serial dilutions were conducted from the top dose (i.e. 100 ppm) to achieve the desired titration range for EC50 and EC90 determination. For R. sanguineus, D. variabilis, and A. americanum, the final DMSO concentration in each test vial was 0.5%. For I. scapularis, compounds were solubilized directly in an acetone/triton solution due to I. scapularis' sensitivity to DMSO. A 459 μL aliquot of each compound formulation was transferred to a vial containing a Whatman Grade 540 2.1 cm filter paper. Vials were immediately placed on an unheated roller unit to allow for an even coating of the vial walls. After vials were coated, 41 μL of each compound formulation was added to the filter paper embedded in each vial cap. Each cap was allowed to dry. The vials were loosely capped and allowed to dry for a minimum of four hours in a chemical fume hood.
(§1) Compounds tested were: the C1 racemate, C1 (R) enantiomer, and the C1 (S) enantiomer. For Trial 3, the C1 (R) enantiomer and the C1 (S) enantiomer were further chiral purified to achieve >99% purity.
Ten adult ticks were added to each vial and held at 24° C., 80% humidity with 12-hour light/dark cycles. Adult ticks were assessed for percent mortality at various time points between 2 hours and 48 hours post infestation. Ticks were stimulated on a heated roller unit and evaluated. Ticks showing no movement, or very slow and uncoordinated movement were noted as dead.

Aedes aegypti = assay: In vitro ingestion activity against adult mosquitoes (artificial feeding, bovine blood); details: read-out: Mortality % R1 + R2
Method: Aedes aegypti (Louisiana Biologicals Inc., New Orleans, La.) eggs were allowed to hatch, close, and age between 3-5 days in an environmental chamber at 26° C., 80% humidity with light/dark cycles.
For mosquito ingestion tests, serial dilutions of the compound stock were performed using DMSO to achieve the desired range for EC50 and EC90 determination. An aliquot of each compound dilution was added to organic bovine blood with a final DMSO concentration of 0.5% and placed in a temperature-controlled artificial feeding container.
as §1
For both contact and ingestion assays, five female Aedes aegypti adults were added to each vial or cage. The test vials for contact assays were held in an environmental chamber at 24° C., 80% humidity with light/dark cycles (12 hours each). The cages for mosquito ingestion assays were held in a temperature-controlled artificial feeding apparatus to allow continual access to organic bovine blood containing the desired concentration of compound. Fresh aliquots of compound-spiked bovine blood were provided daily for the duration of the study.
Assessment of mortality/knockdown was performed at various time points between 30 minutes and 24 hours post infestation. Mosquitoes showing no movement or mosquitoes that were knocked down were noted as dead. Results from trial 1 and trial 2 contact assays are shown in Tables 12 and 13, respectively and the results from trial 3 mosquito ingestion assay is shown in table 14.
For the mosquito contact and ingestion assays, each replicate contained 5 mosquitoes. For ease of calculation, the two replicates were added to equal a total of 10 mosquitoes.

## O=C(CC(F)(F)F)N1CC2(C1)OCc1cc(C3=NS[C@@](c4cc(Cl)c(F)c(Cl)c4)(C(F)(F)F)C3)ccc12 [C1 (S) enantiomer, (S)-1-[6-[5-(3,5-dichloro-4-fluoro-phenyl)-5-(trifluoromethyl)-4H-isothiazol-3-yl]spiro[1H-isobenzofuran-3,3′-azetidine]-1′-yl]-3,3,3-trifluoro-propan-1-one]
Ixodes scapularis; 2 h, Rep1
  mortality at 0.006 µM: 0%
  mortality at 0.024 µM: 0%
  mortality at 0.098 µM: 0%
  mortality at 0.39 µM: 0%
  mortality at 1.56 µM: 0%
  mortality at 6.25 µM: 0%
  mortality at 25 µM: 0%
  mortality at 100 µM: 0%
Ixodes scapularis; 2 h, Rep2
  mortality at 0.006 µM: 0%
  mortality at 0.024 µM: 0%
  mortality at 0.098 µM: 0%
  mortality at 0.39 µM: 0%
  mortality at 1.56 µM: 0%
  mortality at 6.25 µM: 0%
  mortality at 25 µM: 0%
  mortality at 100 µM: 0%
Ixodes scapularis; 6 h, Rep1
  mortality at 0.006 µM: 0%
  mortality at 0.024 µM: 0%
  mortality at 0.098 µM: 0%
  mortality at 0.39 µM: 0%
  mortality at 1.56 µM: 0%
  mortality at 6.25 µM: 0%
  mortality at 25 µM: 40%
  mortality at 100 µM: 100%
Ixodes scapularis; 6 h, Rep2
  mortality at 0.006 µM: 0%
  mortality at 0.024 µM: 0%
  mortality at 0.098 µM: 0%
  mortality at 0.39 µM: 0%
  mortality at 1.56 µM: 0%
  mortality at 6.25 µM: 0%
  mortality at 25 µM: 40%
  mortality at 100 µM: 100%
Ixodes scapularis; 12 h, Rep1
  mortality at 0.006 µM: 0%
  mortality at 0.024 µM: 0%
  mortality at 0.098 µM: 0%
  mortality at 0.39 µM: 0%
  mortality at 1.56 µM: 0%
  mortality at 6.25 µM: 40%
  mortality at 25 µM: 100%
  mortality at 100 µM: 100%
Ixodes scapularis; 12 h, Rep2
  mortality at 0.006 µM: 0%
  mortality at 0.024 µM: 0%
  mortality at 0.098 µM: 0%
  mortality at 0.39 µM: 0%
  mortality at 1.56 µM: 0%
  mortality at 6.25 µM: 50%
  mortality at 25 µM: 90%
  mortality at 100 µM: 100%
Ixodes scapularis; 24 h, Rep1
  mortality at 0.006 µM: 0%
  mortality at 0.024 µM: 0%
  mortality at 0.098 µM: 0%
  mortality at 0.39 µM: 0%
  mortality at 1.56 µM: 50%
  mortality at 6.25 µM: 100%
  mortality at 25 µM: 100%
  mortality at 100 µM: 100%
Ixodes scapularis; 24 h, Rep2
  mortality at 0.006 µM: 0%
  mortality at 0.024 µM: 0%
  mortality at 0.098 µM: 0%
  mortality at 0.39 µM: 0%
  mortality at 1.56 µM: 60%
  mortality at 6.25 µM: 90%
  mortality at 25 µM: 100%
  mortality at 100 µM: 100%
Ixodes scapularis; 48 h, Rep1
  mortality at 0.006 µM: 0%
  mortality at 0.024 µM: 0%
  mortality at 0.098 µM: 10%
  mortality at 0.39 µM: 40%
  mortality at 1.56 µM: 90%
  mortality at 6.25 µM: 100%
  mortality at 25 µM: 100%
  mortality at 100 µM: 100%
Ixodes scapularis; 48 h, Rep2
  mortality at 0.006 µM: 10%
  mortality at 0.024 µM: 0%
  mortality at 0.098 µM: 10%
  mortality at 0.39 µM: 40%
  mortality at 1.56 µM: 100%
  mortality at 6.25 µM: 100%
  mortality at 25 µM: 100%
  mortality at 100 µM: 100%
Aedes aegypti; 24 h
  mortality at 0.049 ppm: 70%
  mortality at 0.2 ppm: 100%
  mortality at 0.78 ppm: 100%
  mortality at 3.125 ppm: 100%
  mortality at 12.5 ppm: 100%
  mortality at 50 ppm: 100%
Aedes aegypti
  mortality at 0.049 ppm: 0%
  mortality at 0.2 ppm: 44.4%
  mortality at 0.78 ppm: 100%
  mortality at 3.125 ppm: 100%
  mortality at 12.5 ppm: 100%
  mortality at 50 ppm: 100%
